The IC50 is the concentration that gives 50% inhibition.

A value given as a limit tells only on which side of the number the result lay.

The target in this test is T1, Purified ERAP1 (37-941)-10His (ERAP1) (Homo sapiens, UniProt Q9NZ08).
T1 construct: Purified ERAP1 (37-941)-10His (ERAP1)
T1 sequence (Q9NZ08 37-941): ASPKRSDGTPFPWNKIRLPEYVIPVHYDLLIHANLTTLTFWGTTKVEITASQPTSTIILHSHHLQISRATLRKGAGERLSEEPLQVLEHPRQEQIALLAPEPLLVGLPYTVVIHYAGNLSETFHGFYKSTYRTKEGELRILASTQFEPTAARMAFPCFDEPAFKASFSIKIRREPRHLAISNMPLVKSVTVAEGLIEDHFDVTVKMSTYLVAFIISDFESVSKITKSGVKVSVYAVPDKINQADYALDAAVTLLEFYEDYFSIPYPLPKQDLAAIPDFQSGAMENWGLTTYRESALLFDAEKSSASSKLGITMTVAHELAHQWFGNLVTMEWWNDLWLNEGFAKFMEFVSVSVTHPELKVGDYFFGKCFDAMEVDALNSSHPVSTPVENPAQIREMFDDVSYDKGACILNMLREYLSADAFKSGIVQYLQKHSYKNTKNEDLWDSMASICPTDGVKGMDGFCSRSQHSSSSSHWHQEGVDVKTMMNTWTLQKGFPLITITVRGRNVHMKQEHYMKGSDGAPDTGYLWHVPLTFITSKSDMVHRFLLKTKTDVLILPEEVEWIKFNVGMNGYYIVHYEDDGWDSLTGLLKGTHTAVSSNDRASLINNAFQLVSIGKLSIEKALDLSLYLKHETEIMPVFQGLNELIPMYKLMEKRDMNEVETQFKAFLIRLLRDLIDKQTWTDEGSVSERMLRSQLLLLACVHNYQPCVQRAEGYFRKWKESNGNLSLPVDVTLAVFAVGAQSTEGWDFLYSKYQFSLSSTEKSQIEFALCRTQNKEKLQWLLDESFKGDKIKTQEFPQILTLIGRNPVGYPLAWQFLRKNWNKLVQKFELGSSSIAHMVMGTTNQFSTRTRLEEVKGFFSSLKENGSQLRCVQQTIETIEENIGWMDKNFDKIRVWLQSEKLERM
Kind of test: ERAP1 mediated hydrolysis of an amide substrate (10-mer inhibition assay), biochemical system. The conditions noted are these: 10-mer substrate, 23° C., 1 h, excitation 279 nm / emission 355 nm; read-out: IC50 vs Decapeptide WRVYEKC(Dnp)ALK-acid (where Dnp is Dinitrophenyl maleimide) (10-mer).
Turning to `CCOc1ccc(C(=O)O)cc1S(=O)(=O)Nc1cc(C(F)(F)F)ccc1N1CCCCC1` [Example 201, 4-ethoxy-3-(N-(2-(piperidin-1-yl)-5-(trifluoromethyl)phenyl)sulfamoyl)benzoic acid], the IC50 is below 500 nM. Next, `COc1ccc(C(=O)O)cc1S(=O)(=O)Nc1cc(Cl)c(Cl)cc1N1CCCCC1` [Example 202, 3-(N-(4,5-dichloro-2-(piperidin-1-yl)phenyl)sulfamoyl)-4-methoxybenzoic acid]: below 500 nM.

`CCc1ccc(C(=O)O)cc1S(=O)(=O)Nc1cc(C(F)(F)F)ccc1N1CCC(F)(F)CC1` [Example 203, 3-(N-(2-(4,4-difluoropiperidin-1-yl)-5-(trifluoromethyl)phenyl)sulfamoyl)-4-ethylbenzoic acid]: the IC50 is below 500 nM.

`CCc1ccc(C(=O)O)cc1S(=O)(=O)Nc1cc(C(F)(F)F)ccc1N1CCCC(F)(F)C1` [Example 204, 3-(N-(2-(3,3-difluoropiperidin-1-yl)-5-(trifluoromethyl)phenyl)sulfamoyl)-4-ethylbenzoic acid]: the IC50 was below 500 nM. In the case of `CCc1ccc(C(=O)O)cc1S(=O)(=O)Nc1cc(C(F)(F)F)ccc1N1CCC(F)CC1` [Example 205, 4-ethyl-3-(N-(2-(4-fluoropiperidin-1-yl)-5-(trifluoromethyl)phenyl)sulfamoyl)benzoic acid], the IC50 was below 500 nM. As for `COc1ccc(C(=O)O)cc1S(=O)(=O)Nc1cc(C(F)(F)F)ccc1N1CCC(F)CC1` [Example 206, 3-(N-(2-(4-fluoropiperidin-1-yl)-5-(trifluoromethyl)phenyl)sulfamoyl)-4-methoxybenzoic acid], the IC50 is below 500 nM.

For the compound `COc1ccc(C(=O)O)cc1S(=O)(=O)Nc1cc(S(C)(=O)=O)ccc1N1CCCCC1` [Example 207, 4-methoxy-3-(N-(5-(methylsulfonyl)-2-(piperidin-1-yl)phenyl)sulfamoyl)benzoic acid], the IC50 is below 500 nM. As to `COc1ccc(C(=O)O)cc1S(=O)(=O)Nc1cc(C(F)(F)F)ccc1N1CCC[C@@H](F)C1` [Example 208, I-3-(N-(2-(3-fluoropiperidin-1-yl)-5-(trifluoromethyl)phenyl)sulfamoyl)-4-methoxybenzoic acid], the IC50 was below 500 nM. For the compound `COc1ccc(C(=O)O)cc1S(=O)(=O)Nc1cc(C(F)(F)F)ccc1N1CCC[C@H](F)C1` [Example 209, (S)-3-(N-(2-(3-fluoropiperidin-1-yl)-5-(trifluoromethyl)phenyl)sulfamoyl)-4-methoxybenzoic acid], the IC50 is below 500 nM. Next, `CCc1ccc(C(=O)O)cc1S(=O)(=O)Nc1cc(C(F)(F)F)ccc1N1CCC[C@H](F)C1` [Example 210, (S)-4-ethyl-3-(N-(2-(3-fluoropiperidin-1-yl)-5-(trifluoromethyl)phenyl)sulfamoyl)benzoic acid]: below 500 nM; `CCc1ccc(C(=O)O)cc1S(=O)(=O)Nc1cc(C(F)(F)F)ccc1N1CCC[C@@H](F)C1` [Example 211, I-4-ethyl-3-(N-(2-(3-fluoropiperidin-1-yl)-5-(trifluoromethyl)phenyl)sulfamoyl)benzoic acid]: below 500 nM. `COc1ccc(C(=O)O)cc1S(=O)(=O)Nc1cc(C(F)F)ccc1N1CCCCC1` [Example 212, 3-(N-(5-(difluoromethyl)-2-(piperidin-1-yl)phenyl)sulfamoyl)-4-methoxybenzoic acid]: the IC50 was below 500 nM.

Take `CCc1ccc(C(=O)O)cc1S(=O)(=O)Nc1cc(C(F)F)ccc1N1CCCCC1` [Example 213, 3-(N-(5-(difluoromethyl)-2-(piperidin-1-yl)phenyl)sulfamoyl)-4-ethylbenzoic acid]: the 50% inhibitory concentration (IC50) is below 500 nM. With `COc1ccc(C(=O)O)cc1S(=O)(=O)Nc1cc(-n2cnnn2)ccc1N1CCCCC1` [Example 214, 4-methoxy-3-(N-(2-(piperidin-1-yl)-5-(1H-tetrazol-1-yl)phenyl)sulfamoyl)benzoic acid] the figure was below 500 nM; with `CCc1ccc(C(=O)O)cc1S(=O)(=O)Nc1cc(C#N)ccc1N1CCCCC1` [Example 215, 3-(N-(5-cyano-2-(piperidin-1-yl)phenyl)sulfamoyl)-4-ethylbenzoic acid], below 500 nM. `CCc1ccc(C(=O)O)cc1S(=O)(=O)Nc1cc(Cl)ccc1N1CCCCC1` [Example 216, 3-(N-(5-chloro-2-(piperidin-1-yl)phenyl)sulfamoyl)-4-ethylbenzoic acid]: the IC50 is below 500 nM. For `CCc1ccc(C(=O)O)cc1S(=O)(=O)Nc1cc(Cl)ccc1N1CCC(F)(F)CC1` [Example 217, 3-(N-(5-chloro-2-(4,4-difluoropiperidin-1-yl)phenyl)sulfamoyl)-4-ethylbenzoic acid], the IC50 is below 500 nM. Next, `COc1ccc(C(=O)O)cc1S(=O)(=O)Nc1cc(Cl)ccc1N1CCC(F)(F)CC1` [Example 218, 3-(N-(5-chloro-2-(4,4-difluoropiperidin-1-yl)phenyl)sulfamoyl)-4-methoxybenzoic acid]: below 500 nM. With `COc1ccc(C(=O)O)cc1S(=O)(=O)Nc1cc(Cl)ccc1N1CCCC(F)(F)C1` [Example 219, 3-(N-(5-chloro-2-(3,3-difluoropiperidin-1-yl)phenyl)sulfamoyl)-4-methoxybenzoic acid] the figure was below 500 nM; with `CCc1ccc(C(=O)O)cc1S(=O)(=O)Nc1cc(Cl)ccc1N1CCCC(F)(F)C1` [Example 220, 3-(N-(5-chloro-2-(3,3-difluoropiperidin-1-yl)phenyl)sulfamoyl)-4-ethylbenzoic acid], below 500 nM. With `COc1ccc(C(=O)O)cc1S(=O)(=O)Nc1cc(C#N)ccc1N1CCC(F)(F)CC1` [Example 221, 3-(N-(5-cyano-2-(4,4-difluoropiperidin-1-yl)phenyl)sulfamoyl)-4-methoxybenzoic acid] the figure was below 500 nM. For `CCc1ccc(C(=O)O)cc1S(=O)(=O)Nc1cc(C#N)ccc1N1CCC(F)(F)CC1` [Example 222, 3-(N-(5-cyano-2-(4,4-difluoropiperidin-1-yl)phenyl)sulfamoyl)-4-ethylbenzoic acid], the IC50 is below 500 nM.

Consider `COc1ccc(C(=O)O)cc1S(=O)(=O)Nc1cc(C#N)ccc1N1CCCC(O)C1` (stereo not drawn) [Example 223, 3-(N-(5-cyano-2-(3-hydroxypiperidin-1-yl)phenyl)sulfamoyl)-4-methoxybenzoic acid], for which the IC50 is below 500 nM. Next, `CCc1ccc(C(=O)O)cc1S(=O)(=O)Nc1cc(C#N)ccc1N1CCCC(O)C1` (stereo not drawn) [Example 224, 3-(N-(5-cyano-2-(3-hydroxypiperidin-1-yl)phenyl)sulfamoyl)-4-ethylbenzoic acid]: below 500 nM; `CS(=O)(=O)c1ccc(C(=O)O)cc1S(=O)(=O)Nc1cc(C(F)(F)F)ccc1N1CCCCC1` [Example 225, 4-(methylsulfonyl)-3-(N-(2-(piperidin-1-yl)-5-(trifluoromethyl)phenyl)sulfamoyl)benzoic acid]: above 5000 nM. Next, `O=C(O)c1ccc(OCC(F)(F)F)c(S(=O)(=O)Nc2cc(C(F)(F)F)ccc2N2CCCCC2)c1` [Example 227, 3-(N-(2-(piperidin-1-yl)-5-(trifluoromethyl)phenyl)sulfamoyl)-4-(2,2,2-trifluoroethoxy)benzoic acid]: below 5000 nM. With `CC(C)(O)c1ccc(C(=O)O)cc1S(=O)(=O)Nc1cc(C(F)(F)F)ccc1N1CCCCC1` [Example 228, 4-(2-hydroxypropan-2-yl)-3-(N-(2-(piperidin-1-yl)-5-(trifluoromethyl)phenyl)sulfamoyl)benzoic acid] the figure was below 500 nM.

Values taken from patent US12485169B2, “Compounds” (GREY WOLF THERAPEUTICS LIMITED, priority 2018, dated 2025).
